The record followed here is article PMC9572541, “Design, Synthesis and Biological Evaluation of Novel and Potent Protein Arginine Methyltransferases 5 Inhibitors for Cancer Therapy” (Molecules, 2022).

Experiment [1] addresses T1, PRMT5 (Homo sapiens, UniProt O14744).
T1 construct: The final concentrations of PRMT5 enzyme: 2.5 nm/L
Kind of experiment: Cellular thermal shift assay (CETSA) in MV-4-11 cells. Format: cell-based.
Method: The cellular thermal shift assay and the isothermal dose response were run as previously described. Briefly, MV-4-11 cells were collected and centrifugated (4 min, 1000 rpm) and washed twice with PBS. Then the cells were divided three equal parts with seeding density of 1 × 10^6 cells/mL into 60 mm cell culture dish in three mL media. The cell suspension was incubated with DMSO and compounds for 18 h at 37 °C, 5% CO2, and 85% RH.
After incubation, cells were collected and washed twice with PBS. Then they divided the ten parts into transferred thin-walled PCR tubes (0.2 mL, Axygen, Union City, CA, USA) in 50μL PBS. Cells were subjected to 3 min of heat in 96-well thermal cycler (Eppendorf Mastercycler nexus GSX1, Düsseldorf, German) at temperatures of 37, 46, 49, 52, 55, 58, 61, 64, 67 and 70 °C. After heating, cells were left to cool for 3 min and then snap frozen in −80 °C ultra-low temperature freezer overnight. The next day, cells were subjected to 3 rapid freeze thaws with 15 s of vortexing after each thaw. […]
(B) The relative strength of PRMT5 signal on the Western blots was measured by densitometry. […] All data were analyzed using a Boltzmann sigmoidal fit. […]

Experiment [2] deals with sDMA. Kind of experiment: Western blot of PRMT5 substrate sDMA in MV-4-11 cells. Format: cell-based. The note with it: 96 h, five-fold concentration gradient. As for the experimental part:
Compounds were administered at the expected concentration for the expected time in MV-4-11 cell lines. After being washed twice with PBS, cells were lysed with RIPA buffer, protease inhibitors (PMSF, MCE, New York, NY, USA), and phosphatase cocktails II (MCE, USA) for 1 h. The mixture was centrifuged at 12000 rpm for 15 min. The total protein content was quantified by BCA kit (Beyotime, Shanghai, China). Equivalent proteins were electrophoresed through 8~10% SDS-PAGE and then transferred on to polyvinylidene difluoride membranes (Millipore, Burlington, MA, USA). Subsequently, block the membrane for 1~2 h by 5% (w/v) skim milk (BD, Columbus, OH, USA). Proteins were detected using primary antibodies, followed by HRP-conjugated secondary antibodies, and visualization was performed using ECL (Vazyme Biotech, Beijing, China) as the HRP substrate. The target blots were detected with chemiluminescence system (Tanon, Shanghai, China). The densitometric analysis was performed with Image J software.
Western blot analysis of PRMT5 substrate sDMA, as indicated in MV-4-11 cancer cells treated with the indicated compounds for 96 h. β-Tubulin was used as a loading control. (B) The relative strength of sDMA signal on the Western blots was measured by densitometry. The data are shown as the mean ± SD of three independent experiments.
Background: Immunoblotting shows a protein as a band on a membrane.

For experiment [3], the system named is MDA-MB-468 cells. Kind of experiment: Anti-proliferation CellTiter-Glo assay, MDA-MB-468. In kind it is cell-based. The note with it: Homo sapiens. The text has this:
(§1) MV-4-11 and MDA-MB-468 cell lines were used to evaluate the anti-proliferative activities of the selected target compounds (CellTiter-Glo assay), and AML-12 hepatocytes were selected to evaluate the toxicity of the compounds.
(§2) MV-4-11 and MDA-MB-468 cell line were derived from Cell Resources Center of Shanghai Academy of life sciences (Shanghai, China). AML-12 cell line was brough from Nanjing Lixing Biotechnology Co. Ltd. (Nanjing, China). MDA-MB-468 cell line was maintained in Dulbecco’s Modified Eagle Medium (DMEM, KeyGEN Bio) that contained 10% FBS (Biochanel, China), MV-4-11 cell line was maintained in Iscove’s Modified Dulbecco Medium containing; 10% FBS (Biochannel, China), AML-12 cell line was maintained in DMEM/F-12 (1:1) (KeyGEN, China; 1% ITS Liquid Media Supplement (Sigma, America), dexamethasone 40 ng/mL (Sigma, USA) and 10% FBS (Biochannel, China). All cells were grown in a humidified incubator containing 5% carbon dioxide at 37 ℃. All compounds were dispersed in dimethyl sulfoxide (Sigma), the concentration of the reserve solution was 10 mmol/L and the solution was stored in a refrigerator at −20 ℃. SDMA (# 13222S), β- Tubulin (#2146S) and horseradish peroxidase (HRP)-linked secondary antibodies anti-rabbit or anti-mouse IgG were purchased from Cell Signaling Technology (CST), and the anti-PRMT5 (ab109451) antibody was purchased from ABCAM.
(§3) The antiproliferative activities of compounds in vitro were measured by CellTiter-Glo (CTG) assay (Promega, America). In linear/log-phase growth, cultured MV-4-11 cells were split to with seeding density of 2 × 10^5 cells/mL in 1–20 mL of media, depending on the yield required at the end of the growth period. At the conclusion of each treatment period, cells were harvested by centrifugation (4 min, 1000 rpm), and cell pellets were rinsed twice with PBS before being research further processing. Afterwards, cells were plated in 96-well plates with a density of 500 cells/well in […] media. After six hours incubation, compounds treatment was performed. Half of the culture medium was moved and re-plated with fresh media with fresh compound after 6 days. On the 12th day, Cell Titer-Glo Luminescent Cell Viability assays (Promega, USA) were used to determine the viable cell number, and luminescence was recorded using the Envision Multilabel Plate Readers (PerkinElmer). The concentration dependence curves were determined at each time point using GraphPad Prism 8.0 software.

The test system of experiment [4] is MV-4-11 cells. Kind of experiment: Anti-proliferation CellTiter-Glo assay, MV-4-11. Format: cell-based. The note with it: Homo sapiens, MV4-11, 12th day.
From the text: as §1, §2, §3

Experiment [5] has as its target T1, PRMT5. Kind of experiment: PRMT5 enzymatic activity inhibition assay (radioactive methylation, 3H-SAM to H4R3 peptide). Format: biochemical. On the procedure: The PRMT5 enzymatic activity assay was conducted by Chempartner Life science. The final concentrations of PRMT5 enzyme: 2.5 nm/L; ^3H-SAM: 0.3 μM/L; histone peptide (H4R3S1ac): 0.3 μM/L. The protocol of radioactive methylation assay was as follows: (1) Prepare 1× assay buffer (modified Tris Buffer). (2) Transfer compounds to assay plate using Echo in 100% DMSO. DMSO’s final fraction is 1%. (3) Prepare enzyme and ^3H-SAM Mix solution in 1× assay buffer. (4) Prepare substrate (peptide sequence Ac-[…]-K(Biotin)) solution in 1× assay buffer. (5) Transfer 15 μL of enzyme and ^3H-SAM solution to assay plate. (6) Incubate at room temperature for 60 min. (7) Add 10 μL of substrate solution to each well to start the reaction, and for low control transfer 10 μL of 1× assay buffer. (8) Incubate at room temperature for 120 min. (9) Add cold SAM in 1× assay buffer to make the stop mix. (10) Stop reaction with addition of 5 µL per well of stop solution. (11) Transfer 25 µL of volume per well to Flash plate from assay plate. (12) Incubate for 1 h minimum at room temperature.
(13) Read plate on Micro beta. (14) Data process—get the data in Excel to obtain inhibition values using Equation (1).Inhibitory rate% = (Max-Signal)/ (Max-Min) × 100(1)
Fit the data in XL-Fit to obtain IC50 values using Equation (2): Y = Bottom + (Top-Bottom)/(1 + (IC50/X) […]) Y is% inhibition and X is compound concentration(2)

T1 sequence (O14744 whole entry): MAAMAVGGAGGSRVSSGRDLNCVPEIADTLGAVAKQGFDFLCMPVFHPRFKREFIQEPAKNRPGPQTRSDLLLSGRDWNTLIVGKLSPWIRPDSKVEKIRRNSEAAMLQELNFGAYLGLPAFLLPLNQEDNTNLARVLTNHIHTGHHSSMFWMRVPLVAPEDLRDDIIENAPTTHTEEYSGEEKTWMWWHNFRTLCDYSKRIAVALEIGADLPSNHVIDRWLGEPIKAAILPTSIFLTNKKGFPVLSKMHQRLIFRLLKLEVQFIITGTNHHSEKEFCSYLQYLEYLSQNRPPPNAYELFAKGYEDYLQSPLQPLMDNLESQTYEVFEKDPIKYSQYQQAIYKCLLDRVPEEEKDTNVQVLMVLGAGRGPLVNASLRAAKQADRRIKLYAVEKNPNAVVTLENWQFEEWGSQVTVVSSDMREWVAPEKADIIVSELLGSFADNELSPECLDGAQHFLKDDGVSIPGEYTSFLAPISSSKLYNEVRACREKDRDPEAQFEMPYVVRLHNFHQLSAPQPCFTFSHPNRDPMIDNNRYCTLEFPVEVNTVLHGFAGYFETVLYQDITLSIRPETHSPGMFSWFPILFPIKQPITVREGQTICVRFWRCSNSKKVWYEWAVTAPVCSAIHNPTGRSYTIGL
T1 sequence (Q9BQA1 whole entry partner): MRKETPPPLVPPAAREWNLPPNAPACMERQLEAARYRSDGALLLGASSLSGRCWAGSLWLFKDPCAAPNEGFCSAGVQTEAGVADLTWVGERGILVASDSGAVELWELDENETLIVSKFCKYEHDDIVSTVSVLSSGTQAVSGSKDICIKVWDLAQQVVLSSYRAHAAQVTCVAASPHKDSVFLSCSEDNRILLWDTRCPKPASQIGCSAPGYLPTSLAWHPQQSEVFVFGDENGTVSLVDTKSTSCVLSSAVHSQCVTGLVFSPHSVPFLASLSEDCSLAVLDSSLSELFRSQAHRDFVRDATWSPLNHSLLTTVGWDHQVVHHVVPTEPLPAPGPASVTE

For the compound `O=C(NC[C@H](O)CN1CCc2ccccc2C1)c1ccc2c(c1)c1c(n2CC2COC2)CCCC1` [Compound 20, (S)-N-(3-(3,4-dihydroisoquinolin-2(1H)-yl)-2-hydroxypropyl)-9-(oxetan-3-ylmethyl)-2,3,4,9-tetrahydro-1H-carbazole-6-carboxamide], the “PRMT5 melting point increase compared to DMSO vehicle” value in experiment [1] (1 μM, 18 h) is 7.2 °C. For the same compound, in experiment [1] (isothermal dose response, 58 °C), the “Inhibition of PRMT5 degradation at 58 °C” value was “dose-dependent manner”. In experiment [2], the sDMA protein expression result is listed as “concentration-dependent decrease in sDMA”. The concentration for 50% growth inhibition (GI50) in experiment [3] is 9.9 ± 6.8 nM; in experiment [4] it was 4.6 ± 0.9 nM. Moreover, in experiment [5], the 50% inhibitory concentration (IC50) came out at 4.2 ± 1.3 nM. Besides, the inhibition at 0.1 µM in experiment [5] (100 nM compound, read-out: Inhibition Rate% @100 nM) came out at 83 ± 12%.

By GI50 is commonly meant the concentration at which growth is held to half of that of the control. A lower GI50 goes with more potent growth inhibition. For orientation: IC50 means the concentration needed to halve the response being measured. What is called inhibition is the relative decrease from the control value, in per cent.
